Source: patent US20260356879A1, “CELASTROL DERIVATIVES” (Celloram Inc., priority 2022, published 2026)
“Also recorded” adds a separate entry of the source. Like-named read-outs stand apart in the source and are kept apart here.

Assays:
TNF-α secretion [1] = experiment: TNF-α secretion in THP-1 macrophages, LPS + Nigericin; format: cell-based; conditions: human THP-1 macrophages, FIG. 5D
Experimental: This example illustrates a comparative study of CLM-022 and MCC950 in inhibiting NLRP3 inflammasome activity in mouse and human macrophages.
To confirm the inhibitory effect of CLM-022 in human macrophages, THP-1 cells, a human leukemia monocytic cell line, were differentiated into macrophages using phorbol 12-myristate-13-acetate (PMA, 100 ng/ml) treatment for one day. The THP-1 macrophages were then treated with LPS (100 ng/ml) for 3 hours to induce the expression of inflammatory genes. Subsequently, the THP-1 cells were treated with CLM-022 or MCC950 in a dose range of 0-10 μM for 30 minutes. Then, to fully activate NLRP3-dependent inflammasome activity, Nigericin (10 μM) was added to the THP-1 cells for an additional 60 min.

TNF-α secretion [2] = experiment: Secreted TNF-α in conditioned media of BMDC (ELISA), LPS+ATP or LPS+Nigericin; format: cell-based; conditions: 63-500 nM, FIG. 2C
Experimental: FIG. 2A depicts western blot images showing the relative NLRP3 inflammasome activity of the compounds 22 (CLM-022) and 1 (CLM-001) by detecting the level of cellular ASC complex and the mature form of IL-1β (15 kDa) in a conditioned media of BMDCs treated with LPS (100 ng/ml) for 3 hours and then the compound at 50 nM, 100 nM, and 500 nM concentration for 30 min, followed by ATP or Nigericin. ASC monomer and β-Actin proteins were used as controls. FIG. 2B depict plots of results showing secreted IL-1β levels measured by ELISA using conditioned media of BMDC treated with the compound 22 or compound 1 at 63 nM, 125 nM, 250 nM, and 500 nM, under NLRP3 inflammasome activation induced either by LPS+ATP or LPS+Nigericin. FIG. 2C depict plots of results showing secreted TNF-α levels measured by ELISA using conditioned media of BMDC treated with the compound 22 or compound 1 at 63 nM, 125 nM, 250 nM, and 500 nM, under NLRP3 inflammasome activation induced either by LPS+ATP or LPS+Nigericin.
3. The secreted form of TNF-α, a NLRP3 inflammasome independent cytokine, induced by LPS+ATP or LPS+Nigericin were measured by ELISA assay using the conditioned media of BMDC treated with compound 1 (CLM-1) or compound 22 (CLM-022) at concentrations of 63, 125, 250, 500 nM under NLRP3 inflammasome activation induced either by LPS+ATP or LPS+Nigericin.

NEK7 = molecular target: T1, NEK7 (Homo sapiens, UniProt Q8TDX7); experiment: DARTS assay: protection of NEK7 from Pronase degradation in THP-1 lysates; format: binding; conditions: 10 μM, FIG. 6C
T1 construct: DARTS with Pronase, immunoblot
T1 sequence (Q8TDX7 whole entry): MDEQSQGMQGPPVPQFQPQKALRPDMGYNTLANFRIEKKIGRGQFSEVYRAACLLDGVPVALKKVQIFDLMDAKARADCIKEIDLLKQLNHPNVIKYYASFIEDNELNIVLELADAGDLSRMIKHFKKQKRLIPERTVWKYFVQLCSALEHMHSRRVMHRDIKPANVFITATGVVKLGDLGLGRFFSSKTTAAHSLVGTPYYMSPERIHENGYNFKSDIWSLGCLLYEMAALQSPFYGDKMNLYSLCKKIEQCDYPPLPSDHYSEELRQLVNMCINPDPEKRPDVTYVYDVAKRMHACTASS
Source text: The NLRP3 inflammasome is composed of a multi-protein complex and the exact molecular mode of NLRP3 activation remains unclear. Currently, there are no NLRP3 inflammasome inhibitors in the clinic, and it is important to identify the mechanism of action and molecular target of potential small molecules that interact with NLRP3. This example illustrates a study of the ability of CLM-022 to protect the NLRP3 molecule as determined using a drug affinity responsive target stability (DARTS) assay. DARTS assay is a robust method to identify small molecule target protein. In case of a drug-target interaction, the small molecule protects target protein from degradation by proteinase (Pronase) whereas free-proteins may be degraded very efficiently in the given condition.
The DARTS assay was performed using THP-1 lysates pretreated with LPS and Nigericin to induce activation of NLRP3 inflammasome. THP-1 cells (1×10^5/mL) were treated with LPS (100 ng/ml) for 3 hours, followed by 10 μM Nigericin for an additional 30 minutes. Pronase (50-500 ng/μg of protein) was added to the lysate with CLM-022 (10 μM) or MCC950 (10 μM) for the indicated time (10-15 min) at room temperature. The protein components of NLRP3 inflammasome were visualized using antibody recognizing NLRP3-Natch domain (FIG. 6A), NLRP-PYD domain (FIG. 6B), or NEK7 protein (FIG. 6C). […]

NF-kB = NF-kB luciferase reporter assay (HepG2 NF-kB-Luc reporter cells, IL-1β stimulated); format: cell-based, human; conditions: for IC50: Homo sapiens
Experimental: HepG2 NF-kB-Luc reporter cells stimulated with IL-1β (20 ng/ml) and the relative NF-kB luciferase activity (RLU) was determined for each of celastrol (compound 1) and each of the exemplary derivative compounds at the following eight point concentrations: 10 μM, 5 μM, 2.5 μM, 1.25 μM, 0.63 μM, 0.31 μM, 0.16 μM, 0.016 μM, and 0 μM). Assay values were plotted (not shown) and IC50 inhibitory concentrations were calculated after normalization using Prizm 9.0 software.
This example illustrates a study of the anti-inflammatory potential of an exemplary celastrol derivative of the present disclosure (compound 22) using an NF-κB luciferase promoter reporter gene assay in the human liver cancer cell line, HepG2.
NF-kB luciferase reporter assay: The celastrol derivative, compound 22 (prepared as described in Example 13) and the parent molecule, compound 1 (celastrol), were freshly dissolved in DMSO. HepG2 NF-κB reporter cells were seeded (2.5×10^4/well) in 96-well plate and then pre-treated with either compound 22 or compound 1 at the 8-point concentrations of 10, 5, 2.5, 1.25, 0.63, 0.31, 0.16, 0.016, or 0 μM, respectively, and the NF-κB promoter was activated by adding IL-1β (20 ng/ml) to the cells. After 18 hours, the cells were harvested by adding the 1× passive cell lysis buffer (Promega) and followed by measurement of the relative NF-kB luciferase activity (RLU) using GloMax discover microplate reader (Promega). Inhibitory concentrations (IC50) after normalization using Prizm 9.0 software.

[3] = system: NF-kB target proteins iNOS, COX2, NLRP3, and IL-1β; experiment: LPS-induced NF-kB target protein expression in BMDCs (western blot); format: cell-based; conditions: BMDCs, 10, 25, 50 nM, LPS (500 ng/ml), FIG. 1C
Experimental: FIG. 1A depicts plots of relative NF-κB luciferase activity (RLU) for compound 22 and compound 1 (also referred to as “CLM-001”) assayed at 8-point concentrations (10 μM, 5 μM, […], 1.25 μM, 0.63 μM, 0.31 μM, 0.16 μM, […], and 0 μM). FIG. 1B depicts plots of the inhibitory concentrations (IC50) for compounds 22 (CLM-022) and 1 (CLM-001).
LPS-induced NF-kB target protein expression: Bone marrow-derived dendritic cells (BMDCs) were pre-treated with compound 22 or compound 1 at three concentrations (10 nM, 25 nM, 50 nM) for an hour and then treated overnight with LPS (500 ng/ml). The next day, the cells were subjected to western blotting for iNOS, COX2, NLRP3, and IL-1β.

IC50 (NF-kB; HepG2 NF-kB-Luc reporter cells, IL-1β (20 ng/ml), Example 13, read-out: NF-kB IC50): 268 nM
% IC50 relative to Celastrol (NF-kB; relative to celastrol (compound 1)): 51%
IC50 lower than that of compound 1 by (NF-kB; vs compound 1 (IC50=528 nM), Example 14): 50%
Compound: CC1=C(O)C(=O)C=C2C1=CC=C1[C@@]2(C)CC[C@@]2(C)[C@@H]3C[C@](C)(N(C)C(=O)C(=O)N(C)C)CC[C@]3(C)CC[C@]12C [Compound 22, N′-[(2R,4aS,6aR,6aS,14aS,14bR)-10-hydroxy-2,4a,6a,6a,9,14a-hexamethyl-11-oxo-1,3,4,5,6,13,14,14b-octahydropicen-2-yl]-N,N,N′-trimethyl-oxamide]
inhibition of TNF-α secretion (TNF-α secretion [1]): but not TNF-α
suppression of TNF-α secretion (TNF-α secretion [2]): no significant suppressive effect on TNF-α inflammatory cytokine secretion
protection of NEK7 from Pronase-induced degradation (NEK7): did not protect NEK7 from Pronase-induced degradation
IC50 (NF-kB; HepG2, IL-1β (20 ng/ml), 18 hours, normalized, Example 14, FIG. 1B, read-out: IC50 for NF-κB promoter activity): 268 nM
inhibition of NF-kB inflammatory signaling (NF-kB; IL-1β-induced, HepG2, FIG. 1): robust inhibitory potential for IL-1β-induced NF-kB inflammatory signaling pathway superior to celastrol (compound 1) at low concentrations; also recorded: robustly inhibits NF-κB inflammatory signaling
expression of LPS-induced NF-kB target proteins iNOS, COX2, NLRP3, and IL-1β [3]: markedly inhibited expression of the LPS-induced NF-kB target proteins iNOS, COX2, NLRP3, and IL-1β in a dose-dependent fashion
